“Also recorded” adds a separate entry of the source. Read-outs that look alike come from different tables or passages of the source. No end group written: not given here.
How the values were obtained:
His-TRAF6_310-522 = assay: Peptide array, TRAF6 binding; parameters: species or system human; key to T6 interaction (peptide array): +: Interaction with TRAF6 or TRAF2 isindicated according to the results shown in Figure 1c.; -: Interaction with TRAF6 or TRAF2 isindicated according to the results shown in Figure 1c; conditions: for T6 interaction (peptide array): immobilized peptide, 10 µg per mL His-TRAF6, 4 h RT, two independent experiments; for TRAF6 binding to immobilized peptide (in words): peptide array
Experimental: (§1) Arrays were synthesized on a Multipep Synthesizer (Intavis Bioanalytical Instruments) on derivatized cellulose (amino-Peg500 UC540, acid-hardened, loading 400 nmol per cm^2, Intavis). After peptides were spot-assembled and deprotected, membranes were washed extensively with dichloromethane, N-methylpyrrolidone, and ethanol and stored at −20 °C until use. Prior to use, filters were rinsed for 10 sec in ethanol and washed three times for ten min each at 50 rpm in PBST (PBS, 0.1% Tween-20) under gentle rocking. Filters were blocked by incubation in PBST supplemented with 5% (w/v) nonfat dry milk powder for 2 h at RT and three washing steps in PBST for 20 min. Subsequently, nonspecific antibody binding sites were blocked by incubation of the filters at 4 °C overnight with either TRAF6 (goat α-TRAF6 C-20 #sc-6223, Santa Cruz Biotech.) or TRAF2 primary antibody (rabbit α-TRAF2 C-20, #sc-876, Santa Cruz Biotech.), diluted at 1:1000 in PBS supplemented with 5% (w/v) nonfat dry milk powder. Following three washing steps with PBS, the filters were incubated with horseradish peroxidase-conjugated α-goat IgG (Dianova, #305-035-003) or α-rabbit IgG (Cell signalling Technology, #7074S) secondary antibody, diluted 1:5000 in PBS supplemented with 5% (w/v) nonfat dry milk powder. Filters were developed with ECL and no nonspecific antibody binding was detected. To detect TRAF6 or TRAF2 binding to the immobilized peptides, filters were washed with PBST and subsequently incubated with 10 µg per mL recombinant purified His-TRAF6 or His-TRAF2 protein in PBST supplemented with 5% (w/v) nonfat dry milk powder for 4 h at RT. After washing the filters in PBST, TRAF protein binding was analyzed by incubation of the filters with TRAF6 (C-20, #sc-6223, Santa Cruz Biotech., used at 1:1000) or TRAF2 (C-20, #sc-876, Santa Cruz Biotech., used at 1:1000) primary and the respective Horseradish peroxidase-coupled secondary antibodies (Dianova, #305-035-003, used at 1:500, or Cell Signalling Technology, #7074, used at 1:5000). ECL signals were captured on X-ray films (Agfa Healthcare).

His-TRAF2_311-501 = assay: Peptide array, TRAF2 binding; parameters: key to T2 interaction (peptide array): +: Interaction with TRAF6 or TRAF2 isindicated according to the results shown in Figure 1c.; -: Interaction with TRAF6 or TRAF2 isindicated according to the results shown in Figure 1c; conditions: for T2 interaction (peptide array): immobilized peptide, 10 µg per mL His-TRAF2, 4 h RT, two independent experiments
Experimental: as §1

[1] = tested on: His-TRAF6_310-522 (TRAF6); assay: AlphaScreen PPI assay, TRAF6 binding to GST-LMP1/CD40/RANK proteins; parameters: species or system human; conditions: for Bmax (best-fit value): AlphaScreen signal
Experimental: AlphaScreen experiments were performed in 96- or 384-well plates (Perkin Elmer, OptiPlate). In both assay formats, His-TRAF and GST-LMP1, GST-CD40, or GST-RANK proteins were incubated together in 40 µL of PBS (protein concentrations were calculated to the final reaction volume of 60 µL) supplemented with 0.5% BSA (Sigma, #A7030) and 0.1% Tween-20 (AppliChem, #A4974), for 1 h at room temperature (RT). If not indicated otherwise, standard protein concentrations were 300 nM for His-TRAF proteins and 100 nM for GST-LMP1 proteins. Ni-NTA-acceptor (Perkin Elmer, #6760619 C) and GST-acceptor (Perkin Elmer, # 6765300) beads were added each to a final concentration of 1–4 µg per mL in a final reaction volume of 60 µL and incubated for 1 h at RT in the dark. AlphaScreen PPI signals were measured in a CLARIOstar reader (BMG Labtech GmbH).
All statistical analyses were performed with Prism v10.1.0 software (GraphPad Software Inc.). Two-way ANOVA was performed on experiments with two factors of variance (Figs. 1e and 3a). Ordinary one-way ANOVA with multiple comparisons was performed on experiments with one factor of variance (Figs. 2a–e, 3c, 6b, 7b, 8c and Supplementary Fig. 2a). For KD determination, the data from each experiment were cleaned for the hook effect (signal depletion by oversaturation of the beads) and analyzed using the equation one site-specific binding with hill slope (Figs. 1f–i, and Supplementary Fig. 1f). The IC50 was determined using the log(inhibitor) vs. response – variable slope (four parameters) equation (Fig. 8b and d). A paired t-test was used for matched samples (Fig. 8b) and an unpaired t-test was used for unpaired samples (Figs. 7c and 8e).

[2] = source data, One site -- Specific binding with Hill slope
[3] = source data, One site -- Specific binding with Hill slope, concentrations c H-T6 in nM, read-out: Kd (best-fit value)

Molecule	T6 interaction (peptide array) (His-TRAF6_310-522)	T2 interaction (peptide array) (His-TRAF2_311-501)	h (Hill slope, best-fit value) [1, 2]	Bmax (best-fit value) [1, 2]	further results
2: CD40 230-259, A250xAxA (KQEPQEINFPDDLPGSNTAAAVAEALHGCQ; UniProt P25942 230-259, looked up, variant P250A Q252A T254A) [compound 2]	+	-			
DDSLPHPQQATDDSGHESDSNSNEGRHHLL [peptide 6, LMP1 198-227]	-	+			TRAF6 binding to immobilized peptide (in words) (His-TRAF6_310-522): did not bind; TRAF2 binding to immobilized peptide (in words) (His-TRAF2_311-501; peptide array): bound
GSNTAAAVAEALHGCQPVTQEDGKESRISV [peptide 5, CD40 244-273, A250xAxA]	-	-			
GSNTAAPVQETLHGCQPVTQEDGKESRISV [peptide 4, CD40 244-273]	-	+			
KAEAQAINFPDDLPGSNTAAPVQETLHGCQ [peptide 3, CD40 230-259, A231xAxA]	-	+			
KQEPQEINFPDDLPGSNTAAPVQETLHGCQ [peptide 1, CD40 amino acids 230-259]	+	+			
PHLPTLLLGSSGSGGDDDDPHGAVALAYYD [peptide 12, LMP1 357-386, A379xAxA]	-	-			TRAF6 binding to immobilized peptide (in words) (His-TRAF6_310-522): abolished the direct TRAF6 binding
PHLPTLLLGSSGSGGDDDDPHGPVQLSYYD [peptide 11, LMP1 357-386 (30mer)]	+	-			TRAF6 binding to immobilized peptide (in words) (His-TRAF6_310-522): efficiently captured
RANK E346Q (GGGPYAQGEDARMLSLVSKTEIEEDSFRQMPTQDEYMDRPSQ; also: GST fusion left off, end not given here)			1.998	1302008	
RANK: recombinant GST-RANK314-355 (GGGPYAQGEDARMLSLVSKTEIEEDSFRQMPTEDEYMDRPSQ; also: GST fusion left off, end not given here)			2.024	1370733	Kd [1, 3]: 7.74 nM
… GDDDDPHGPVQLSAAD [peptide 9, LMP1 371-386, A384A385]	-	-			TRAF6 binding to immobilized peptide (in words) (His-TRAF6_310-522): abolished the direct TRAF6 binding
… GDDDDPHGPVQLSYYD [peptide 8, LMP1 371-386 (16mer)]	+	-			TRAF6 binding to immobilized peptide (in words) (His-TRAF6_310-522): efficiently captured
CD40: recombinant GST-CD40_216-277 (protein, left off: GST, end not stated, kept) KKVAKKPTNKAPHPKQEPQEINFPDDLPGSNTAAPVQETLHGCQPVTQEDGKESRISVQERQ			2.083	1455821	
CD40 E235Q (protein, left off: GST, end not stated, kept) KKVAKKPTNKAPHPKQEPQQINFPDDLPGSNTAAPVQETLHGCQPVTQEDGKESRISVQERQ			1.924	1053663	
LMP1 Q381E (protein, left off: GST, end not stated, kept) LIWMYYHGQRHSDEHHHDDSLPHPQQATDDSGHESDSNSNEGRHHLLVSGAGDGPPLCSQNLGAPGGGPDNGPQDPDNTDDNGPQDPDNTDDNGPHDPLPQDPDNTDDNGPQDPDNTDDNGPHDPLPHSPSDSAGNDGGPPQLTEEVENKGGDQGPPLMTDGGGGHSHDSGHGGGDPHLPTLLLGSSGSGGDDDDPHGPVELSYYD			1.772	1507585	fold enhanced affinity for TRAF6 ([1]; compared with LMP1 wild-type): 5.0 -fold
LMP1 Y384F (protein, left off: GST, end not stated, kept) LIWMYYHGQRHSDEHHHDDSLPHPQQATDDSGHESDSNSNEGRHHLLVSGAGDGPPLCSQNLGAPGGGPDNGPQDPDNTDDNGPQDPDNTDDNGPHDPLPQDPDNTDDNGPQDPDNTDDNGPHDPLPHSPSDSAGNDGGPPQLTEEVENKGGDQGPPLMTDGGGGHSHDSGHGGGDPHLPTLLLGSSGSGGDDDDPHGPVQLSFYD			1.321	1186145	TRAF6 binding/affinity (in words) ([1]; AlphaScreen PPI): improved the affinity of LMP1 for TRAF6; also recorded: higher affinity of Y384F to TRAF6 as compared to wild-type LMP1; Kd ([1]; AlphaScreen PPI, His-TRAF6_310-522 titrated with GST-receptor protein, PBS 0.5% BSA 0.1% Tween-20, 1 h RT, one site-specific binding with hill slope, mean ± SD, n = 3 (CD40), 4 (LMP1), 6 (RANK), read-out: KD of TRAF6 interaction): 21.7 ± 6.6 nM; Kd [1, 3]: 21.7 nM
LMP1 Y384D (protein, left off: GST, end not stated, kept) LIWMYYHGQRHSDEHHHDDSLPHPQQATDDSGHESDSNSNEGRHHLLVSGAGDGPPLCSQNLGAPGGGPDNGPQDPDNTDDNGPQDPDNTDDNGPHDPLPQDPDNTDDNGPQDPDNTDDNGPHDPLPHSPSDSAGNDGGPPQLTEEVENKGGDQGPPLMTDGGGGHSHDSGHGGGDPHLPTLLLGSSGSGGDDDDPHGPVQLSDYD					TRAF6 binding/affinity (in words) ([1]; AlphaScreen PPI): TRAF6 binding was not abolished; reduction of affinity to TRAF6 (factor) ([1]; compared with the respective wild-type receptor): 1.8; Kd ([1]; one site, specific binding with Hill slope, c H-T6 in nM, hook effect data excluded, 95% CI A204xAxA 52,94 to 93,02, Y384D 72,59 to 190,2, read-out: Kd): 131 nM; h (Hill slope) ([1]; one site, specific binding with Hill slope, hook effect data excluded, Std. Error A204xAxA 0.2126, Y384D 0.1712): 1.019; Bmax ([1]; one site, specific binding with Hill slope, hook effect data excluded, Std. Error A204xAxA 67298, Y384D 78225): 1231417

From PMC10776578, “Epstein-Barr virus-driven B cell lymphoma mediated by a direct LMP1-TRAF6 complex” (Nature Communications, 2024)
